In patent US6872562B2, “Herbicide resistant dinitrogen fixing bacteria and method of use” (priority 2001, dated 2005):

Columns and labels:
[1] = test system: TV5866RR soybean inoculated with B. japonicum (USDA 110); assay: Growth cabinet time course of nodule acetylene reduction activity (ARA); assay type: in vivo, soybean (Glycine max); conditions: 1.68 kg ha^−1 at 5, 12, and 19 DAE
From the text: The time course of nodule activity from 14 to 28 DAE was followed in a series of four runs of an experiment in a growth cabinet. Soybean seeds were sown in N-free potting media in pots constructed of 15-cm diameter polyvinyl chloride pipe. These pipes allow nondestructive measurement of nodule activity by the acetylene reduction assay as described by Purcell et al. (1997). Seeds were inoculated with B. japonicum (USDA 110), and pots were supplied with N-free nutrients. […] Acetylene reduction activity (ARA) was measured at 14, 21, and 28 DAE by passing a 9:1 air to acetylene mixture through the pots at 0.5 L min^−1. After 8 min., 1-mL aliquots of the effluent gas stream were collected from each pot and analyzed for ethylene by gas chromatography. Nitrogenase activity for glyphosate-treated and control plants was similar at 14 DAE, except for Run 4 when ARA was lower for glyphosate-treated plants (Table 5). ARA was 12 to 20% lower for glyphosate-treated plants at 21 DAE in three of the four runs. By 28 DAE, ARA was lower in glyphosate-treated plants only in Run 2 and was greater than control plants in Run 1.

[2] = test system: GR soybean cultivars A4501RR, A5901RR, DK5961RR, H5164RR, TV5866RR; assay: Greenhouse Example 2: sensitivity of five GR soybean cultivars to glyphosate; assay type: in vivo, soybean (Glycine max); conditions: 40 DAE
From the text: The other plants were not treated and served as controls. […] The experiment was a completely random design with six replications.

[3] = test system: B. japonicum (strain USDA 110); assay: Growth of B. japonicum in defined liquid media with glyphosate up to 10 mM (Example 6); assay type: cell-based; conditions: Bradyrhizobium japonicum, 216 h, read-out: Growth inhibition compared to the control without glyphosate
Protocol: The defined media consists of 25 mM arabinose as the carbon source, 15 mM (NH4)2SO4, 0.7 mM MgSO4, 0.4 mM CaCl2, 20 mM NaCl, 2.5 mM K2HPO4, and 40 mM MOPS (3-[N-morpholino]propane-sulfonic acid), at pH 6.8, plus the appropriate micronutrients. […] These colonies were removed and stored in frozen culture in 50% sterile glycerol.

[4] = test system: glyphosate resistant soybean cultivar DK5961RR inoculated with B. japonicum (USDA 110); assay: Seed-imbibed glyphosate: nodulation, growth chamber experiment; assay type: in vivo; conditions: glyphosate concentrations greater than 12 mM
Protocol: (§1) Pots 15-cm in diameter, with a total volume of 1.3 L were filled with a peat based potting mix that was saturated with a nitrogen-free nutrient solution. Six seeds from a particular glyphosate-concentration seed soak were planted in each pot and 1 ml of B. japonicum (USDA 110) containing approximately 4.24×10^6 cells was applied evenly across the surface and washed into the potting mix with 250 ml of minus N nutrients. Plants were thinned to one per pot after emergence. Day and night temperatures were approximately 30 and 24 C, respectively, and natural illumination was supplemented with 1000 W metal-halide lamps for a day length of 16 hours. […] Root nodules were scanned and images were used to determine nodule number and size as influenced by glyphosate treatment. The […] was repeated in a controlled environmental growth chamber with six replications. Growth chamber temperature was a constant 25 C and light and dark periods were 16 and 8 hours, respectively. Plants were harvested at 15 days after planting and sectioned as previously described (Example 1).

[5] = test system: B. japonicum (strain USDA 110); assay: B. japonicum growth in culture with increasing glyphosate (Example 12); assay type: cell-based; conditions: Bradyrhizobium japonicum, 168 h; read-out: Growth inhibition relative to the control
Protocol: 0.1, 1, 3, and 5 mM. […] At concentrations as low as 0.01 mM, B. japonicum growth was inhibited 18% relative to the control (FIG. 4). At a concentration of 0.1 mM, growth was inhibited approximately 40% relative to the control.

[6] = test system: Wild type USDA 110; assay: Growth in Tulley's media with 5 mM glyphosate, wild type (Example 7); assay type: cell-based, Bradyrhizobium japonicum
Protocol: (§2) Duplicate cultures were evaluated from each of the original colony selections. […] The cultures were allowed to grow for 14 days, and then the OD of each culture was measured.

[7] = test system: selected B. japonicum cultures (from USDA 110); assay: Growth in Tulley's media with 5 mM glyphosate, colonies selected in Example 6 (Example 7); assay type: cell-based, Bradyrhizobium japonicum
Protocol: as §2

[8] = test system: glyphosate resistant soybean cultivar DK5961RR inoculated with B. japonicum (USDA 110); assay: Seed-imbibed glyphosate: nodulation, greenhouse experiment; assay type: in vivo
Protocol: as §1

O=C(O)CNCP(=O)(O)O [glyphosate, N-(phosphonomethyl)glycine]
Acetylene reduction activity (mean ± SE) ([1]; Run 1, 14 DAE): 33 ± 2 μmol C2H4 plant^−1 h^−1 | Acetylene reduction activity (mean ± SE) ([1]; Run 1, 21 DAE): 45 ± 3 μmol C2H4 plant^−1 h^−1 | Acetylene reduction activity (mean ± SE) ([1]; Run 1, 28 DAE): 76 ± 7 μmol C2H4 plant^−1 h^−1 | Acetylene reduction activity (mean ± SE) ([1]; Run 2, 14 DAE): 23 ± 3 μmol C2H4 plant^−1 h^−1 | Acetylene reduction activity (mean ± SE) ([1]; Run 2, 21 DAE): 53 ± 6 μmol C2H4 plant^−1 h^−1 | Acetylene reduction activity (mean ± SE) ([1]; Run 2, 28 DAE): 70 ± 4 μmol C2H4 plant^−1 h^−1 | Acetylene reduction activity (mean ± SE) ([1]; Run 3, 14 DAE): 57 ± 13 μmol C2H4 plant^−1 h^−1 | Acetylene reduction activity (mean ± SE) ([1]; Run 3, 21 DAE): 75 ± 9 μmol C2H4 plant^−1 h^−1 | Acetylene reduction activity (mean ± SE) ([1]; Run 3, 28 DAE): 115 ± 13 μmol C2H4 plant^−1 h^−1 | Acetylene reduction activity (mean ± SE) ([1]; Run 4, 14 DAE): 28 ± 4 μmol C2H4 plant^−1 h^−1 | Acetylene reduction activity (mean ± SE) ([1]; Run 4, 21 DAE): 56 ± 3 μmol C2H4 plant^−1 h^−1 | Acetylene reduction activity (mean ± SE) ([1]; Run 4, 28 DAE): 107 ± 14 μmol C2H4 plant^−1 h^−1 | Shoot mass effect [2]: decreased | Biomass Nodule ([2]; A4501RR, E + L treatment): 0.47 g plant^−1 | Biomass Root ([2]; A4501RR, E + L treatment): 1.22 g plant^−1 | Biomass Shoot ([2]; A4501RR, E + L treatment): 4.55 g plant^−1 | Nitrogen Root ([2]; A4501RR, E + L treatment): 45 mg plant^−1 | Nitrogen Shoot ([2]; A4501RR, E + L treatment): 185 mg plant^−1 | Nodule biomass effect ([2]; A5901RR): increased | Biomass Nodule ([2]; A5901RR, E + L treatment): 0.54 g plant^−1 | Biomass Root ([2]; A5901RR, E + L treatment): 0.93 g plant^−1 | Biomass Shoot ([2]; A5901RR, E + L treatment): 4.03 g plant^−1 | Nitrogen Root ([2]; A5901RR, E + L treatment): 45 mg plant^−1 | Nitrogen Shoot ([2]; A5901RR, E + L treatment): 163 mg plant^−1 | Nodule mass effect ([2]; DK5961RR): decreased | Biomass Nodule ([2]; DK5961RR, E + L treatment): 0.40 g plant^−1 | Biomass Root ([2]; DK5961RR, E + L treatment): 0.74 g plant^−1 | Biomass Shoot ([2]; DK5961RR, E + L treatment): 3.41 g plant^−1 | Nitrogen Root ([2]; DK5961RR, E + L treatment): 31 mg plant^−1 | Nitrogen Shoot ([2]; DK5961RR, E + L treatment): 142 mg plant^−1 | Biomass Nodule ([2]; H5164RR, E + L treatment): 0.47 g plant^−1 | Biomass Root ([2]; H5164RR, E + L treatment): 1.18 g plant^−1 | Biomass Shoot ([2]; H5164RR, E + L treatment): 4.36 g plant^−1 | Nitrogen Root ([2]; H5164RR, E + L treatment): 46 mg plant^−1 | Nitrogen Shoot ([2]; H5164RR, E + L treatment): 170 mg plant^−1 | Biomass Root ([2]; TV5866RR, E + L treatment): 0.71 g plant^−1 | Biomass Shoot ([2]; TV5866RR, E + L treatment): 3.07 g plant^−1 | Nitrogen Root ([2]; TV5866RR, E + L treatment): 35 mg plant^−1 | Nitrogen Shoot ([2]; TV5866RR, E + L treatment): 131 mg plant^−1 | Biomass Nodule ([2]; TV5866RR, E + L: 1.68 kg ai ha^−1 at 5, 10, 18, 25, and 32 DAE): 0.34 g plant^−1 | Measured biomass or nitrogen parameters ([2]; cultivars A5901RR or H5164RR): None of the measured biomass or nitrogen parameters were decreased | inhibition at 10000 µM [3]: ~90% | Nodule number [4]: progressively decreased | inhibition at 10 µM [5]: 18% | inhibition at 100 µM [5]: ~40% | Growth, % of USDA 110 in the absence of glyphosate ([6]; 14 days): 33% | OD600 ([6]; USDA 110, after 14 days): 0.44 b^ | Growth, % of wild type USDA 110 in the absence of glyphosate ([7]; 45 selected colonies averaged, liquid culture, 14 days): 27% | OD600 ([7]; Selected cultures, averaged over all strains, after 14 days): 0.36 b^ | Reduction in nodule number compared to the control ([8]; 3.1 mM glyphosate seed treatment, 10 DAP): ~30% | Nodule number ([8]; glyphosate concentrations greater than 3.1 mM): increased to values similar to that of plants from the control treatment | Average diameter of individual nodules ([8]; increasing glyphosate concentrations, 17 DAP): tended to decrease
